Measured values: patent US9018370B2, “Derivatives of uridine phosphate and their uses in protein binding assays” (King's College London of Strand, priority 2009, dated 2015)
Values belong to the compound of their own block, whether it stands above or below them.

What was measured:
[1] = Absorbance and fluorescence spectra of 5-R-UMP analogues; assay type: physicochemical; settings: for λmax: absorbance; for Emmax: fluorescence emission
Method: UV absorbance spectra were recorded on a PerkinElmer Lambda 25 UV-Vis spectrometer at ambient temperature in FarUV quartz cells (path length 1.0 cm). Fluorescence spectra were recorded on a PerkinElmer LS-45 spectrometer at ambient temperature in a quartz micro fluorescence cell (path length 1.0 cm).

[2] = Quantum yield determination of nucleotide derivatives; assay type: physicochemical; settings: for Q.Y.: in water
Method: Nucleotide derivatives were serially diluted in H2O (10, 20, 30, 40 and 50 μM for absorbance measurements, and 0.2, 0.4, 0.6, 0.8, 1 μM for fluorescence measurements), and UV absorbance and fluorescence emission (with λmax absorbance=λem fluorescence) were recorded for all samples. To determine quantum yields, for each absorbance and fluorescence spectrum the area under the curve (AUC) was calculated by numerical integration, applying the mid-point rule. For each compound, AUCabs and AUCem were then plotted over compound concentration according to AUCabs=A×[conc]+B and AUCem=A′×[conc]+B′. From these linear plots, the gradients A and A′ were extracted, and for each compound the specific quantum yield φs, under these experimental conditions, was calculated as the ratio A′/A. Quantum yields determined with this protocol for two reference compounds, 2-aminopyridine and L-tryptophan (2-aminopyridine: 0.60; L-tryptophan: 0.14) were in exact agreement with literature values. The quantum yields for reference compounds were used to calculate the general quantum yield φg for each nucleotide analogue, according to φg=φref×(A′/A)/(A′/A)ref.
Fluorescent uracil nucleosides and (sugar-)nucleotides can be obtained by connecting a known chromophore/fluorophore via an electronically nonconjugating linker to the natural uracil base (Sinkeldam et al. Chem. Rev. 2010, 110, 2579-2619). The photophysical features of the resulting nucleoside/(sugar-)nucleotide analogue are usually very similar to that of the parent fluorophore (Sinkeldam et al. Chem. Rev. 2010, 110, 2579-2619). In contrast, extending the uracil by electronically conjugating the base to additional aromatic moieties typically generates a new chromophore with unique, and somewhat unpredictable, photophysical characteristics (Sinkeldam et al. Chem. Rev. 2010, 110, 2579-2619). To precisely measure the intensity of the fluorescence emitted by the brightest fluorophores described above, we determined their quantum yield. These measurements were performed in water following the procedure reported by Nighswander-Remper and the results are shown in Table B below. Quantum yield determinations confirmed that 2p and 2q display the highest fluorescence and are 10-fold brighter than any other nucleotide analogues with a compact aryl- or heteroaryl substituent in position 5 that have been reported to date (Sinkeldam et al. Chem. Rev. 2010, 110, 2579-2619). That 2p and 2q absorb and fluoresce at long wavelength is an attractive feature, which makes these fluorophores suitable for analyses in biological environments. Additionally, we found the intensity of the fluorescence emission is conserved for UDP and UTP analogues, thereby providing attractive fluorescence probes candidates for fluorimetric assays.

[3] = target: T1, B. taurus α-1,3-GalT (Bos taurus, UniProt P14769); assay: Donor kinetics of UDP-Gal derivatives with GalT, HPLC; assay type: biochemical; settings: MnCl2 20 mM, MOPS pH 7.2, 37° C.
T1 construct: made in house
Method: J. Am. Chem. Soc. 122, 261-1269 (2000); Rich, J. R.; Szpacenko, A.; Palcic, M. M. & Bundle, D. R. Glycosyltransferase-Catalyzed Synthesis of Thiooligosaccharides. Angew. Chem. Int. Ed. […] ChemBioChem 9, 1632-1640 (2008). […] (total volume 100 μL, all concentrations are final concentrations). The reactions were stopped by cooling in dry ice. Samples were analysed immediately by HPLC on a PerkinElmer Series 200 machine equipped with a Supelcosil LC-18-T column (5 μm, 25 cm×4.6 mm), a column oven (set to 30° C.), and a diode array detector. Each sample (injection volume 40 μL) was eluted at 1.5 mL/min with a gradient of methanol (10-30%) against 0.5 M phosphate buffer (adjusted to pH 8 with triethylamine). […] Km and vmax values were determined by fitting data points to a Michaelis-Menten curve using GraFit 5.0.10.

[4] = Quantum yield determination of UDP-Gal derivatives 3a-d; assay type: physicochemical; settings: in H2O
Method: To determine quantum yields, for each absorbance and fluorescence spectrum the area under the curve (AUC) was calculated by numerical integration, applying the mid-point rule. For each compound, AUCabs and AUCfluo were then plotted over compound concentration according to AUCabs=A×[conc]+B (equation 1) and AUCfluo=A′×[conc]+B′ (equation 2). […] The quantum yields for reference compounds were used to calculate the general quantum yield φg for each compound 3a-d, according to φg=φref×(A′/A)/(A′/A)ref.

[5] = target: T2, Ggta1 (Bos taurus, UniProt P14769); assay: Variation in fluorescence of 3d and analogues upon incubation with Ggta1; assay type: binding, B. taurus; settings: various concentrations of Ggta1
T2 construct: made in house
Method: Fluorescence intensity measurements with 3d were carried out in black NUNC F96 MicroWell polystyrene plates on a BMG labtech PolarStar microplate reader equipped with a 350±5 nm excitation filter and a 430±5 nm emission filter. The number of flashes per wells was set to 50 (gain: 2240; position delay: 0.2 s). Prior to readings, plates were incubated, with shaking, for 10 min at 30° C. (double orbital, shaking width 4 mm, 10 seconds). Results were visualised with BMG labtech data analysis software Mars 1.10 and analysed with GraFit version 5.0.10.
Samples were pipetted into the requisite wells of a black NUNC 96-well plate as shown in tables E1-E3, at the end of the description. Key: B—Tris/HCl buffer (50 mM, pH 7; 40 μL); F—fluorophore 3d (200 nM in Tris/HCl buffer; 40 μL); M—MnCl2 (10 mM in Tris/HCl buffer; […]); E—galactosyltransferase (in Tris/HCl buffer; 40 μL); I—inhibitor (in Tris/HCl buffer; 40 μL). Total volume/well: 200 μL. All experiments were carried out in triplicate, unless indicated otherwise.
We also carried out an experiment on 3d (numbered 18e in FIG. 4) and different analogues of 3d, namely the nucleoside 5h, the nucleotide 6r and nucleoside diphosphate 22d, to show their variation in fluorescence on binding to Ggta1.
The synthesis of 5h, 6r and 22d are shown below. The protocol for the microplate/fluorescence experiments was the same as in Example 2.

T1 sequence (P14769 whole entry): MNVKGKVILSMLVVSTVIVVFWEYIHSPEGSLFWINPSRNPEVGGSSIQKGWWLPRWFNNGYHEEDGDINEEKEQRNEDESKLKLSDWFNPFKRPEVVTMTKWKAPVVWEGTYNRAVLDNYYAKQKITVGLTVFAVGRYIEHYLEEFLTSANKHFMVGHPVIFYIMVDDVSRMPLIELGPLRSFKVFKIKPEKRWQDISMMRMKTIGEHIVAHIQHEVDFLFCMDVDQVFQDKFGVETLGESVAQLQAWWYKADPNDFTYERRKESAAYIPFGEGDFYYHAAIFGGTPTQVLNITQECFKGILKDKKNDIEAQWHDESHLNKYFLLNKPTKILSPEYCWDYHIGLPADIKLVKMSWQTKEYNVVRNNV
T2 sequence (P14769 whole entry): as above

Structure (SMILES): O=c1[nH]c(=O)n([C@@H]2O[C@H](COP(=O)(O)O)[C@@H](O)[C@H]2O)cc1-c1cccc(O)c1 [2e, 5-(3-Hydroxyphenyl)-uridine-5′-monophosphate]
λmax [1]: 285 nm

Structure (SMILES): O=Cc1ccc(-c2cn([C@@H]3O[C@H](COP(=O)(O)OP(=O)(O)O)[C@@H](O)[C@H]3O)c(=O)[nH]c2=O)s1 [22d, 5-(5-Formylthien-2-yl)-UDP]
Variation in fluorescence on binding to Ggta1 [5]: varied their intensity of luminescence with Ggta1

Structure (SMILES): CC(C)(C)OC(=O)NCc1cccc(-c2cn([C@@H]3O[C@H](COP(=O)(O)O)[C@@H](O)[C@H]3O)c(=O)[nH]c2=O)c1 [2d, 5-(3-N-BOC-aminomethylphenyl)-uridine-5′-monophosphate]
Fluo Intensity at 100 μM [1]: 11.6 a.u.
λmax [1]: 281 nm
Emmax [1]: 427 nm

Structure (SMILES): O=c1[nH]c(=O)n([C@@H]2O[C@H](COP(=O)(O)O)[C@@H](O)[C@H]2O)cc1-c1ccc(Cl)cc1 [2b, 5-(4-Chlorophenyl)-uridine-5′-monophosphate]
Fluo Intensity at 100 μM [1]: 78 a.u.
λmax [1]: 281 nm
Emmax [1]: 398 nm
Q.Y. [2]: 0.001

Structure (SMILES): O=c1[nH]c(=O)n([C@@H]2O[C@H](COP(=O)(O)O)[C@@H](O)[C@H]2O)cc1-c1ccccc1 [2a, 5-Phenyluridine-5′-monophosphate]
Fluo Intensity at 100 μM [1]: 40 a.u.
λmax [1]: 278 nm
Emmax [1]: 403 nm

Structure (SMILES): O=c1[nH]c(=O)n([C@@H]2O[C@H](COP(=O)(O)O)[C@@H](O)[C@H]2O)cc1-c1ccc2ccccc2c1 [2g, 5-(2-Naphtyl)-uridine-5′-monophosphate]
Fluo Intensity at 100 μM [1]: 32.2 a.u.
λmax [1]: 221 nm
Emmax [1]: 450 nm

Structure (SMILES): Cc1ccc(-c2cn([C@@H]3O[C@H](COP(=O)(O)O)[C@@H](O)[C@H]3O)c(=O)[nH]c2=O)cc1[N+](=O)[O-] [2c]
Fluo Intensity at 100 μM [1]: 6.7 a.u.
λmax [1]: 279 nm
Emmax [1]: 434 nm

Structure (SMILES): O=c1[nH]c(=O)n([C@@H]2O[C@H](COP(=O)(O)O)[C@@H](O)[C@H]2O)cc1-c1ccccc1O [2f, 5-(2-Hydroxyphenyl)-uridine-5′-monophosphate]
Fluo Intensity at 100 μM [1]: 0.9 a.u.
λmax [1]: 273 nm
Emmax [1]: 415 nm

Structure (SMILES): O=C(O)c1ccc(-c2cn([C@@H]3O[C@H](COP(=O)(O)O)[C@@H](O)[C@H]3O)c(=O)[nH]c2=O)cc1 [2h, 5-(4-Carboxyphenyl)-uridine-5′-monophosphate]
Fluo Intensity at 100 μM [1]: 17.6 a.u.
λmax [1]: 283 nm
Emmax [1]: 411 nm

Results, then the compound that gave them:

λmax [1]: 262 nm
Emmax [1]: 377 nm
Structure (SMILES): O=c1[nH]c(=O)n([C@@H]2O[C@H](COP(=O)(O)O)[C@@H](O)[C@H]2O)cc1I [compound 1, 5-Iodouridine-5′-monophosphate]

Fluo Intensity at 100 μM [1]: 497 a.u.
λmax [1]: 314 nm
Emmax [1]: 437 nm
Q.Y. [2]: 0.04
Structure (SMILES): O=c1[nH]c(=O)n([C@@H]2O[C@H](COP(=O)(O)O)[C@@H](O)[C@H]2O)cc1-c1ccco1 [2m, 5-(Furan-2-yl)-uridine-5′-monophosphate]

Km [3]: 69 ± 13 µM
kcat [3]: 0.0044 s⁻¹
Quantum yield [4]: 0.04
Structure (SMILES): O=c1[nH]c(=O)n([C@@H]2O[C@H](COP(=O)(O)OP(=O)(O)O[C@H]3O[C@H](CO)[C@H](O)[C@H](O)[C@H]3O)[C@@H](O)[C@H]2O)cc1-c1ccco1 [3c, 5-(2-Furyl)-UDP-α-D-galactose]

Fluo Intensity at 100 μM [1]: 5.3 a.u.
λmax [1]: 278 nm
Emmax [1]: 382 nm
Structure (SMILES): CS(=O)(=O)c1cccc(-c2cn([C@@H]3O[C@H](COP(=O)(O)O)[C@@H](O)[C@H]3O)c(=O)[nH]c2=O)c1 [2k, 5-(3-Methanesulfonylphenyl)-uridine-5′-monophosphate]

Fluo Intensity at 100 μM [1]: 5.3 a.u.
λmax [1]: 280 nm
Emmax [1]: 383 nm
Structure (SMILES): O=c1[nH]c(=O)n([C@@H]2O[C@H](COP(=O)(O)O)[C@@H](O)[C@H]2O)cc1-c1ccc(C(F)(F)F)cc1 [2i, 5-(4-Trifluoromethylphenyl)-uridine-5′-monophosphate]

Fluo Intensity at 100 μM [1]: 640 a.u.
λmax [1]: 348 nm
Emmax [1]: 431 nm
Q.Y. [2]: 0.04
Structure (SMILES): O=Cc1ccc(-c2cn([C@@H]3O[C@H](COP(=O)(O)O)[C@@H](O)[C@H]3O)c(=O)[nH]c2=O)o1 [2n]

Km [3]: 82 ± 11 µM
kcat [3]: 0.004 s⁻¹
Quantum yield [4]: 0.024
Structure (SMILES): COc1ccc(-c2cn([C@@H]3O[C@H](COP(=O)(O)OP(=O)(O)O[C@H]4O[C@H](CO)[C@H](O)[C@H](O)[C@H]4O)[C@@H](O)[C@H]3O)c(=O)[nH]c2=O)cc1 [3b, 5-(4-Methoxyphenyl)-UDP-α-D-galactose]

Fluo Intensity at 100 μM [1]: >650 a.u.
λmax [1]: 348 nm
Emmax [1]: 433 nm
Brightness relative to any other reported 5-aryl/heteroaryl nucleotide analogues [2]: 10 fold
Q.Y. [2]: 0.24
Structure (SMILES): CC(=O)c1ccc(-c2cn([C@@H]3O[C@H](COP(=O)(O)O)[C@@H](O)[C@H]3O)c(=O)[nH]c2=O)s1 [2p, 5-(5-Acetylthien-2-yl)-uridine-5′-monophosphate]

Fluo Intensity at 100 μM [1]: 74.8 a.u.
λmax [1]: 289 nm
Emmax [1]: 414 nm
Structure (SMILES): COc1cncc(-c2cn([C@@H]3O[C@H](COP(=O)(O)O)[C@@H](O)[C@H]3O)c(=O)[nH]c2=O)c1 [2j, 5-(5-Methoxy-3-pyridyl)-uridine-5′-monophosphate]

Fluo Intensity at 100 μM [1]: 603 a.u.
λmax [1]: 279 nm
Emmax [1]: 444 nm
Q.Y. [2]: 0.02
Structure (SMILES): COc1ccc(-c2cn([C@@H]3O[C@H](COP(=O)(O)O)[C@@H](O)[C@H]3O)c(=O)[nH]c2=O)cc1 [2l, 5-(4-Methoxyphenyl)-uridine-5′-monophosphate]

Fluo Intensity at 100 μM [1]: 387 a.u.
λmax [1]: 267 nm
Emmax [1]: 453 nm
Q.Y. [2]: 0.02
Structure (SMILES): O=Cc1ccsc1-c1cn([C@@H]2O[C@H](COP(=O)(O)O)[C@@H](O)[C@H]2O)c(=O)[nH]c1=O [2o, 5-(3-Formylthien-2-yl)-uridine-5′-monophosphate]

Km [3]: 96 ± 8 µM
kcat [3]: 0.0021 s⁻¹
Quantum yield [4]: <0.01
Structure (SMILES): O=c1[nH]c(=O)n([C@@H]2O[C@H](COP(=O)(O)OP(=O)(O)O[C@H]3O[C@H](CO)[C@H](O)[C@H](O)[C@H]3O)[C@@H](O)[C@H]2O)cc1-c1ccccc1 [3a, 5-Phenyl UDP-α-D-galactose]
